Measurements as given in patent US12612409B2, “Pyrrolopyrimidines as CFTR potentiators” (Cystic Fibrosis Foundation, priority 2016, dated 2026).

Target: T1, recombinant F508del V470 CFTR in Fischer rat thyroid (FRT) cells (Homo sapiens, UniProt P13569, DEL508-508)
T1 construct: expressed in transfected cells
Assay: FRT ion flux assay of F508del CFTR potentiation
Format: cell-based
Details: FRT cells expressing F508del V470 CFTR, forskolin 20 uM, 27° C. pre-incubation
Procedure: FRT Ion Flux Assay of F508del CFTR Potentiation
Fischer rat thyroid (FRT) cell lines stably expressing recombinant F508del V470 CFTR and halide-sensitive yellow fluorescent protein (Pedemonte et al., J. Clin. Invest. 115(9) 2564-71 (2005)) were seeded at 25,000 cells/well in 50 uL/well of culture medium into black-walled, clear bottom tissue-culture-treated 384-well plates (Corning, cat. no. 3712). After one day, the cells were pre-incubated at 27° C./5% CO2 for 16-24 hours. The cells were then washed with dPBS and treated with forskolin (20 uM) and test compound for 30 mi by addition of 20 uL of compound dilution buffer (dPBS containing forskolin and test compound). Plates were loaded into FLIPR384 fluorescence imaging plate reader (Molecular Devices). After an initial fluorescence reading, iodide buffer (25 uL) (composition (in mM): 137 NaI, 1.5 K2PO4, 8.1 NaH2PO4, 2.7 KCl, 0.5 MgCl2, 1 CaCl2) was added and a second fluorescence reading was made after approximately 21 seconds. Data treatment involved division of the second fluorescence reading by the initial fluorescence reading, then scaling of the resulting normalized endpoint fluorescence with respect to the responses for DMSO (0%) and a positive control potentiator (100%).

T1 sequence (P13569 with tags, fused parts or gaps DEL508-508): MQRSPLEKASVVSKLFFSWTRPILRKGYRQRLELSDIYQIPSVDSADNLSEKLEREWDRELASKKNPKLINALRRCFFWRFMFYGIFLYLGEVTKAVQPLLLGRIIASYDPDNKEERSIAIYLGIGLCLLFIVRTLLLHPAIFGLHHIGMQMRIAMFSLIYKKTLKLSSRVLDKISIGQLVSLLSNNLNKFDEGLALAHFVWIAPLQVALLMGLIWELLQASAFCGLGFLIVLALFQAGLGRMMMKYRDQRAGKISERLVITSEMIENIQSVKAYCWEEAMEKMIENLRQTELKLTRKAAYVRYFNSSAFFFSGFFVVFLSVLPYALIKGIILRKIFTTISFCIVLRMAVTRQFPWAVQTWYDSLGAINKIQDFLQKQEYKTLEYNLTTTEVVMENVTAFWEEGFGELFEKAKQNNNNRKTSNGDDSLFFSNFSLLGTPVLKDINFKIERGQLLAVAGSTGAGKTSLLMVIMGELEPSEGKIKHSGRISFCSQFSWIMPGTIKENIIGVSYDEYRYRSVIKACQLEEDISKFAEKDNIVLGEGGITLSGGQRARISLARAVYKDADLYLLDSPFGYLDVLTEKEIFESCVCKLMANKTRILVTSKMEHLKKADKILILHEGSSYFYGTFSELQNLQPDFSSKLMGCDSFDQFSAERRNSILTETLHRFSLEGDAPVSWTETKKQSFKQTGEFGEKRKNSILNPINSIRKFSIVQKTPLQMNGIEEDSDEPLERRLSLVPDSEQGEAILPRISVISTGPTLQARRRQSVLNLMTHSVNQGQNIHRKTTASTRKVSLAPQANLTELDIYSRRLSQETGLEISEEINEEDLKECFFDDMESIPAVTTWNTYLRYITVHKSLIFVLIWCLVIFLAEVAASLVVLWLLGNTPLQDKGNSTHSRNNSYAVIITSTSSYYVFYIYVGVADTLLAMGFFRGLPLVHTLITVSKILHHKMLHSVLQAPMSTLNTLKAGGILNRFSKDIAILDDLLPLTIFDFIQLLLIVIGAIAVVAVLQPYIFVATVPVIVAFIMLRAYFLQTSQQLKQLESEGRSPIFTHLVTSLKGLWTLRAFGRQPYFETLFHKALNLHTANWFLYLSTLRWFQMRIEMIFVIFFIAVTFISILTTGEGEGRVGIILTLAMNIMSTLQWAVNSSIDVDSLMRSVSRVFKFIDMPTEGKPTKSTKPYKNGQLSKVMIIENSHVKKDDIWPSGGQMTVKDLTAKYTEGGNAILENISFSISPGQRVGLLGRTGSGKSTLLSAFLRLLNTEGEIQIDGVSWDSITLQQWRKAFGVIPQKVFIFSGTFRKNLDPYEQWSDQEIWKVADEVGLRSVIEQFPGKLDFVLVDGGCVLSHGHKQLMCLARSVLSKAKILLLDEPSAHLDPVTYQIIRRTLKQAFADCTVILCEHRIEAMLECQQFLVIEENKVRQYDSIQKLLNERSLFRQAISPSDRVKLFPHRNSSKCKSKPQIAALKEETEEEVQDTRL

Row | SMILES | EC50 [nM]
1 | Cc1ccc2cc(F)c(-c3cn(C(C)c4cnc(-c5ccccc5F)[nH]4)c4ncnc(N)c34)cc2n1 (stereo not shown) [Example 63, 5-(6-Fluoro-2-methylquinolin-7-yl)-7-{1-[2-(2-fluorophenyl)-1H-imidazol-5-yl]ethyl}-7H-pyrrolo[2,3-d]pyrimidin-4-amine] | 4540
2 | CC(c1cnc(-c2ccccc2F)[nH]1)n1cc(-c2ccc3c(c2)OCC(=O)N3)c2c(N)ncnc21 (stereo not shown) [Example 65, 7-(4-Amino-7-{1-[2-(2-fluorophenyl)-1H-imidazol-5-yl]ethyl}-7H-pyrrolo[2,3-d]pyrimidin-5-yl)-2H-1,4-benzoxazin-3(4H)-one] | 1420
3 | COc1cc2c(cc1-c1cn(C(C)c3cnc(-c4ccccc4F)[nH]3)c3ncnc(N)c13)CCC2 (stereo not shown) [Example 69, 7-{1-[2-(2-Fluorophenyl)-1H-imidazol-5-yl]ethyl}-5-(6-methoxy-2,3-dihydro-1H-inden-5-yl)-7H-pyrrolo[2,3-d]pyrimidin-4-amine] | 915
4 | CC(c1cnc(-c2ccccc2F)[nH]1)n1cc(-c2cn[nH]c2)c2c(N)ncnc21 (stereo not shown) [Example 71, 7-{1-[2-(2-Fluorophenyl)-1H-imidazol-5-yl]ethyl}-5-(1H-pyrazol-4-yl)-7H-pyrrolo[2,3-d]pyrimidin-4-amine] | 129
5 | Cn1ncc2ccc(-c3cn(Cc4cn(-c5ccccc5F)nn4)c4ncnc(N)c34)cc21 [Example 73, 7-{[1-(2-Fluorophenyl)-1H-1,2,3-triazol-4-yl]methyl}-5-(1-methyl-1H-indazol-6-yl)-7H-pyrrolo[2,3-d]pyrimidin-4-amine] | 320
6 | Cn1cc2cc(-c3cn(Cc4cn(-c5ccccc5F)nn4)c4ncnc(N)c34)ccc2n1 [Example 76, 7-{[1-(2-Fluorophenyl)-1H-1,2,3-triazol-4-yl]methyl}-5-(2-methyl-2H-indazol-5-yl)-7H-pyrrolo[2,3-d]pyrimidin-4-amine] | 2380
7 | Cn1ncc2c(-c3cn(Cc4cn(-c5ccccc5F)nn4)c4ncnc(N)c34)cccc21 [Example 78, 7-{[1-(2-Fluorophenyl)-1H-1,2,3-triazol-4-yl]methyl}-5-(1-methyl-1H-indazol-4-yl)-7H-pyrrolo[2,3-d]pyrimidin-4-amine] | 1380
8 | Nc1ncnc2c1c(-c1cnc3[nH]ccc3c1)cn2Cc1cn(-c2ccccc2F)nn1 [Example 80, 7-{[1-(2-Fluorophenyl)-1H-1,2,3-triazol-4-yl]methyl}-5-(7H-pyrrolo[2,3-b]pyridin-5-yl)-7H-pyrrolo[2,3-d]pyrimidin-4-amine] | 3780
9 | COc1cc(-c2cn(Cc3cn(-c4ccccc4F)nn3)c3ncnc(N)c23)ccc1C#N [Example 84, 4-(4-Amino-7-{[1-(2-fluorophenyl)-1H-1,2,3-triazol-4-yl]methyl}-7H-pyrrolo[2,3-d]pyrimidin-5-yl)-2-methoxybenzonitrile] | 1560
10 | CC(=O)c1ccc(-c2cn(C(C)c3cn(-c4ccccc4F)nn3)c3ncnc(N)c23)s1 (stereo not shown) [Example 91, 1-[5-(4-Amino-7-{1-[1-(2-fluorophenyl)-1H-1,2,3-triazol-4-yl]ethyl}-7H-pyrrolo[2,3-d]pyrimidin-5-yl)thiophen-2-yl]ethanone] | 111
11 | CC(c1cn(-c2ccccc2F)nn1)n1cc(-c2cccc3c2cnn3C)c2c(N)ncnc21 (stereo not shown) [Example 92, 7-{1-[1-(2-Fluorophenyl)-1H-1,2,3-triazol-4-yl]ethyl}-5-(1-methyl-1H-indazol-4-yl)-7H-pyrrolo[2,3-d]pyrimidin-4-amine] | 2420
12 | COc1cc2c(cc1-c1cn(C(C)c3cn(-c4ccccc4F)nn3)c3ncnc(N)c13)CCCC2 (stereo not shown) [Example 93, 7-{1-[1-(2-Fluorophenyl)-1H-1,2,3-triazol-4-yl]ethyl}-5-(3-methoxy-5,6,7,8-tetrahydronaphthalen-2-yl)-7H-pyrrolo[2,3-d]pyrimidin-4-amine] | 691
13 | CC(c1cn(-c2ccccc2F)nn1)n1cc(-c2ccc3c(cnn3C)c2)c2c(N)ncnc21 (stereo not shown) [Example 95, 7-{1-[1-(2-Fluorophenyl)-1H-1,2,3-triazol-4-yl]ethyl}-5-(1-methyl-1H-indazol-5-yl)-7H-pyrrolo[2,3-d]pyrimidin-4-amine] | 488
14 | CC(c1cn(-c2ccccc2F)nn1)n1cc(-c2cnc3ccccc3c2)c2c(N)ncnc21 (stereo not shown) [Example 100, 7-{1-[1-(2-Fluorophenyl)-1H-1,2,3-triazol-4-yl]ethyl}-5-(quinolin-3-yl)-7H-pyrrolo[2,3-d]pyrimidin-4-amine] | 277
15 | CC(c1cc(-c2ccccc2F)no1)n1cc(-c2ccc3c(c2)C(=O)N(C)C3)c2c(N)ncnc21 (stereo not shown) [Example 101, 6-(4-Amino-7-{1-[3-(2-fluorophenyl)-1,2-oxazol-5-yl]ethyl}-7H-pyrrolo[2,3-d]pyrimidin-5-yl)-2-methyl-2,3-dihydro-1H-isoindol-1-one] | 4060
16 | CC(c1cc(-c2ccccc2F)no1)n1cc(-c2ccc3c(c2)OCCO3)c2c(N)ncnc21 (stereo not shown) [Example 102, 5-(2,3-Dihydro-1,4-benzodioxin-6-yl)-7-{1-[3-(2-fluorophenyl)-1,2-oxazol-5-yl]ethyl}-7H-pyrrolo[2,3-d]pyrimidin-4-amine] | 322
17 | CC(c1cc(-c2ccccc2F)no1)n1cc(-c2ccnc3[nH]ccc23)c2c(N)ncnc21 (stereo not shown) [Example 103, 7-{1-[3-(2-Fluorophenyl)-1,2-oxazol-5-yl]ethyl}-5-(1H-pyrrolo[2,3-b]pyridin-4-yl)-7H-pyrrolo[2,3-d]pyrimidin-4-amine] | 5150
18 | CC(c1cc(-c2ccccc2F)no1)n1cc(-c2ccc3nonc3c2)c2c(N)ncnc21 (stereo not shown) [Example 104, 5-(2,1,3-Benzoxadiazol-5-yl)-7-{1-[3-(2-fluorophenyl)-1,2-oxazol-5-yl]ethyl}-7H-pyrrolo[2,3-d]pyrimidin-4-amine] | 331
19 | CC(c1cc(-c2ccccc2F)no1)n1cc(-c2cc3cnccc3s2)c2c(N)ncnc21 (stereo not shown) [Example 106, 7-{1-[3-(2-Fluorophenyl)-1,2-oxazol-5-yl]ethyl}-5-(thieno[3,2-c]pyridin-2-yl)-7H-pyrrolo[2,3-d]pyrimidin-4-amine] | 2080
20 | CCC(c1cn(-c2ccc(F)c(F)c2)nn1)n1cc(-c2cncnc2OC)c2c(N)ncnc21 (stereo not shown) [Example 245, 7-{1-[1-(3,4-Difluorophenyl)-1H-1,2,3-triazol-4-yl]propyl}-5-[4-methoxypyrimidin-5-yl]-7H-pyrrolo[2,3-d] pyrimidin-4-amine] | 42.4
21 | CCC(c1cn(-c2ccc(F)cc2F)nn1)n1cc(-c2cncnc2OC)c2c(N)ncnc21 (stereo not shown) [Example 246, 7-{1-[1-(2,4-Difluorophenyl)-1H-1,2,3-triazol-4-yl]propyl}-5-[4-methoxypyrimidin-5-yl]-7H-pyrrolo[2,3-d] pyrimidin-4-amine] | 17.2
22 | CC(c1cn(-c2ccccc2F)nn1)n1cc(C2COC2)c2c(N)ncnc21 (stereo not shown) [Example 250, 7-{1-[1-(2-Fluorophenyl)-1H-1,2,3-triazol-4-yl]ethyl}-5-(oxetan-3-yl)-7H-pyrrolo[2,3-d] pyrimidin-4-amine] | 2200
23 | CCC(c1cn(-c2ccccc2F)nn1)n1cc(-c2nccnc2OC)c2c(N)ncnc21 (stereo not shown) [Example 251, 7-{1-[1-(2-Fluorophenyl)-1H-1,2,3-triazol-4-yl]propyl}-5-(3-methoxypyrazin-2-yl)-7H-pyrrolo [2,3-d]pyrimidin-4-amine] | 5.41
24 | Nc1ncnc2c1c(-c1ccc(Cl)cc1)cn2Cc1cn(-c2ccccc2F)cn1 [Example 265, 5-(4-Chlorophenyl)-7-{[1-(2-fluorophenyl)-1H-imidazol-4-yl]methyl}-7H-pyrrolo[2,3-d]pyrimidin-4-amine] | 3880
25 | Nc1ncnc2c1c(-c1ccc(Cl)cc1)cn2Cc1cn(C2CCCC2)nn1 [Example 281, 5-(4-Chlorophenyl)-7-[(1-cyclopentyl-1H-1,2,3-triazol-4-yl)methyl]-7H-pyrrolo[2,3-d]pyrimidin-4-amine] | 170
26 | Nc1ncnc2c1c(C1CN(C(=O)C3CC3)C1)cn2Cc1cn(-c2ccccc2F)nn1 [Example 292, [3-(4-Amino-7-{[1-(2-fluorophenyl)-1H-1,2,3-triazol-4-yl]methyl}-7H-pyrrolo[2,3-d]pyrimidin-5-yl)azetidin-1-yl](cyclopropyl) methanone] | 3210
27 | Nc1ncnc2c1c(C1CN(S(=O)(=O)CC3CC3)C1)cn2Cc1cn(-c2ccccc2F)nn1 [Example 293, 5-{1-[(Cyclopropylmethyl)sulfonyl]azetidin-3-yl}-7-{[1-(2-fluorophenyl)-1H-1,2,3-triazol-4-yl]methyl}-7H-pyrrolo[2,3-d]pyrimidin-4-amine] | 1890
28 | Nc1ncnc2c1c(-c1ccc(Cl)cc1)c(Br)n2Cc1cn(-c2cccc(F)c2)nn1 [Example 319, 6-Bromo-5-(4-chlorophenyl)-7-{[1-(3-fluorophenyl)-1H-1,2,3-triazol-4-yl]methyl}-7H-pyrrolo[2,3-d]pyrimidin-4-amine] | 194
